Our source for the IC50 values is patent US9907800B2, “Kinase inhibitors and method of treating cancer” (University Health Network, priority 2010, dated 2018).

Where a name gives a salt, the structure may show the parent alone. Read-outs that look alike come from different tables or passages of the source.

One test deals with human PLK4 (Homo sapiens (Human), UniProt O00444). The test can be described thus: PLK4 inhibition assay (indirect ELISA). The format is biochemical. (In an ELISA, binding on a coated surface is turned into a signal by an enzyme label.)
The target in the next test is Aurora B (Homo sapiens (Human), UniProt Q96GD4). The experiment in a line: Aurora B inhibition assay (Z-Lyte). The format is biochemical. Particulars: read-out: Aurora B IC50 Ranges.
Sequence of Aurora B (Q96GD4 whole entry): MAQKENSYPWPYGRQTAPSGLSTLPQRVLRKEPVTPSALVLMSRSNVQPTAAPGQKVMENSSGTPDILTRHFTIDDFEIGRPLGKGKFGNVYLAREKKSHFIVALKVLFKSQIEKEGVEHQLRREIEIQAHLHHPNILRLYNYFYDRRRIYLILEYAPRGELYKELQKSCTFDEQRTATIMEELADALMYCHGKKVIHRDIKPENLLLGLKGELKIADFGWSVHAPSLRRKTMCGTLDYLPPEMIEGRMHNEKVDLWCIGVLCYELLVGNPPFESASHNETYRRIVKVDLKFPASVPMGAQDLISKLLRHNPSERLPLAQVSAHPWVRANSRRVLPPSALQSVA

Sequence of human PLK4 (O00444 1-391): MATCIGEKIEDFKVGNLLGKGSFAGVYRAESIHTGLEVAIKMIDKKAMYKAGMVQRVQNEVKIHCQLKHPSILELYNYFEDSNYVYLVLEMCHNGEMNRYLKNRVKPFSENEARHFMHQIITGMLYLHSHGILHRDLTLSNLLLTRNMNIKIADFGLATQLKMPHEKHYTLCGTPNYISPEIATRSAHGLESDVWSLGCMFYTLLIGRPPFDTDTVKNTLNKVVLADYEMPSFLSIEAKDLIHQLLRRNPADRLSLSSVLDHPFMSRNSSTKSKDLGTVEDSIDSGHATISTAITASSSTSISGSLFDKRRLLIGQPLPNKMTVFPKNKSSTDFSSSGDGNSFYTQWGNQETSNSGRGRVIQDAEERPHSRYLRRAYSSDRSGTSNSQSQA
Procedure for Aurora B: Aurora B inhibition was determined using the Z-Lyte assay kit from Invitrogen. […] The % inhibition values were determined according to the manufacturer's directions and IC50 values were obtained using a non-linear 4 point logistic curve fit (XLfit4, IDBS)
Procedure for human PLK4: PLK4 activity was measured using an indirect ELISA detection system. […] The colourimetric reaction was allowed to continue for 5 minutes, followed by addition of stop solution (0.5 N sulphuric acid), and quantified by detection at 450 nm with either a monochromatic or filter based plate reader (Molecular Devices M5 or Beckman DTX880, respectively).
Compounds were pre-incubated in the presence of enzyme for 15 minutes prior to addition of ATP and the activity remaining quantified using the above described activity assay. […] The IC50 value was determined using a non-linear 4 point logistic curve fit (XLfit4, IDBS) with the formula; (A+(B/(1+((x/C)^D)))), where A=background value, B=range, C=inflection point, D=curve fit parameter.

In the case of `O=C1Nc2ccccc2[C@]12C[C@H]2c1ccc2[nH]ncc2c1` (relative stereo) [Example A1, (1R*,2S*)-2-(1H-indazol-5-yl)spiro[cyclopropane-1,3′-indolin]-2′-one], at human PLK4 (read-out: PLK4 IC50 Ranges), the concentration for half-maximal inhibition (IC50) (usually the midpoint of a concentration-inhibition curve) is greater than 1000 nM. Regarding `O=C1Nc2ccccc2[C@]12C[C@H]2c1ccc2c(I)n[nH]c2c1` (relative stereo) [Example A9, (1R*,2S*)-2-(3-iodo-1H-indazol-6-yl)spiro[cyclopropane-1,3′-indolin]-2′-one], on Aurora B, the IC50 was 100 to 1000 nM. For `O=C1Nc2ncc(Br)cc2[C@]12C[C@H]2c1ccc2c(/C=C/c3cccnc3)n[nH]c2c1` (relative stereo) [Example A27, (1R*,2S*)-5′-bromo-2-(3-((E)-2-(pyridin-3-yl)vinyl-1H-indazol-6-yl)spiro[cyclopropane-1,3′-pyrrolo[2,3-b]pyridin]-2′(1′H)-one], the IC50 on Aurora B and on human PLK4 (read-out: PLK4 IC50 Ranges) was less than 100 nM in each case. On to `COc1ccc2c(c1)[C@]1(C[C@H]1c1ccc3c(-c4ccnc(N5CCN(C)CC5)c4)n[nH]c3c1)C(=O)N2` (relative stereo) [Example A37, (1R*,2S*)-5′-Methoxy-2-(3-(2-(4-methylpiperazin-1-yl)pyridin-4-yl)-1H-indazol-6-yl)spiro[cyclopropane-1,3′-indolin]-2′-one], for which the IC50 on Aurora B and on human PLK4 (read-out: PLK4 IC50 Ranges) was less than 100 nM each time. Regarding `COc1ccc2c(c1)[C@]1(C[C@H]1c1ccc3c(-c4cccc(CO)c4)n[nH]c3c1)C(=O)N2` (relative stereo) [Example A43, (1R*,2S*)-2-(3-(3-(hydroxymethyl)phenyl)-1H-indazol-6-yl)-5′-methoxy spiro[cyclopropane-1,3′-indolin]-2′-one 2,2,2-trifluoroacetate], the IC50 on Aurora B and at human PLK4 (read-out: PLK4 IC50 Ranges) was less than 100 nM in each case.

In the case of `COc1ccc2c(c1)[C@]1(C[C@H]1c1ccc3c(-c4cccc(CCO)c4)n[nH]c3c1)C(=O)N2` (relative stereo) [Example A46, (1R*,2S*)-2-(3-(3-(2-hydroxyethyl)phenyl)-1H-indazol-6-yl)-5′-methoxy spiro[cyclopropane-1,3′-indolin]-2′-one], at human PLK4 (read-out: PLK4 IC50 Ranges), the IC50 is less than 100 nM.

For the compound `COc1ccc2c(c1)[C@]1(C[C@H]1c1ccc3c(-c4ccc(N5CCNCC5)cc4)n[nH]c3c1)C(=O)N2` (relative stereo) [Example A48, (1R*,2S*)-5′-methoxy-2-(3-(4-(piperazin-1-yl)phenyl)-1H-indazol-6-yl)spiro[cyclopropane-1,3′-indolin]-2′-one 2,2,2-trifluoroacetate], the IC50 at Aurora B and against human PLK4 was less than 100 nM throughout. Turning to `COc1ccc2c(c1)[C@]1(C[C@H]1c1ccc3c(C#Cc4cccnc4)n[nH]c3c1)C(=O)N2` (relative stereo) [Example A52, (1R*,2S*)- and (1R*,2S*)-5′-methoxy-2-(3-(pyridin-3-ethynyl)-1H-indazol-6-yl)spiro[cyclopropane-1,3′-indolin]-2′-one], the IC50 on Aurora B and at human PLK4 (read-out: PLK4 IC50 Ranges) was less than 100 nM in each case. Turning to `O=C1Nc2ccccc2[C@]12C[C@H]2c1ccc2c(/C=C/c3ccccn3)n[nH]c2c1` (relative stereo) [Example A53, (1R*,2S*)-2-(3-((E)-2-(pyridin-2-yl)vinyl)-1H-indazol-6-yl)spiro[cyclopropane-1,3′-indolin]-2′-one], the IC50 at Aurora B and at human PLK4 (read-out: PLK4 IC50 Ranges) was less than 100 nM in each case. On to `N#Cc1ccc(/C=C/c2n[nH]c3cc([C@@H]4C[C@@]45C(=O)Nc4ccccc45)ccc23)cc1` (relative stereo) [Example A54, 4-((E)-2-(6-((1R*,2S*)-2′-oxospiro[cyclopropane-1,3′-indoline]-2-yl)-1H-indazol-3-yl)vinyl)benzonitrile], for which the figures for the IC50 at Aurora B and on human PLK4 (read-out: PLK4 IC50 Ranges) were 100 to 1000 nM and less than 100 nM, respectively.

Regarding `CN1CCN(c2ccc(-c3n[nH]c4cc([C@@H]5C[C@@]56C(=O)Nc5ccc(N)cc56)ccc34)cc2)CC1` (relative stereo) [Example A86, (1R*,2S*)-5′-amino-2-(3-(4-(4-methylpiperazin-1-yl)phenyl)-1H-indazol-6-yl)spiro[cyclopropane-1,3′-indolin]-2′-one], the values for the IC50 at Aurora B and at human PLK4 (read-out: PLK4 IC50 Ranges) were 100 to 1000 nM and less than 100 nM, respectively. For `CN1C(=O)[C@@]2(C[C@H]2c2ccc3c(/C=C/c4ccc(CN5CCOCC5)cc4)n[nH]c3c2)c2ccccc21` (relative stereo) [Example A87, (1R*,2S*)-(E)-1′-methyl-2-(3-(4-(morpholinomethyl)styryl)-1H-indazol-6-yl)spiro[cyclopropane-1,3′-indolin]-2′-one 2,2,2-trifluoroacetate] the same measures were less than 100 nM and less than 100 nM. On to `CN1C(=O)[C@@]2(C[C@H]2c2ccc3c(-c4ccc(N5CCNCC5)cc4)n[nH]c3c2)c2ccccc21` (relative stereo) [Example A88, (1R*,2S*)-1′-methyl-2-(3-(4-(piperazin-1-yl)phenyl)-1H-indazol-6-yl)spiro[cyclopropane-1,3′-indolin]-2′-one 2,2,2-trifluoroacetate], for which the IC50 on human PLK4 (read-out: PLK4 IC50 Ranges) fell in the range of 100 to 1000 nM. In the case of `CN1CCN(c2ccc(-c3n[nH]c4cc([C@@H]5C[C@@]56C(=O)N(C)c5ccccc56)ccc34)cn2)CC1` (relative stereo) [Example A93, (1R*,2S*)-1′-methyl-2-(3-(6-(4-methylpiperazin-1-yl)pyridin-3-yl)-1H-indazol-6-yl)spiro[cyclopropane-1,3′-indolin]-2′-one bis(2,2,2-trifluoroacetate)], the IC50 at Aurora B and at human PLK4 (read-out: PLK4 IC50 Ranges) was less than 100 nM throughout. As for `COc1cc2c(cc1OC)[C@]1(C[C@H]1c1ccc3c(-c4cccc(CN5CCOCC5)c4)n[nH]c3c1)C(=O)N2` (relative stereo) [Example A143, (1R*,2S*)-5′,6′-dimethoxy-2-(3-(3-(morpholinomethyl)phenyl)-1H-indazol-6-yl)spiro[cyclopropane-1,3′-indolin]-2′-one 2,2,2-trifluoroacetate], the IC50 at human PLK4 (read-out: PLK4 IC50 Ranges) was greater than 1000 nM.

In the case of `COc1cc2c(cc1OC)[C@]1(C[C@H]1c1ccc3c(-c4ccc(N5CCN(C)CC5)cc4)n[nH]c3c1)C(=O)N2` (relative stereo) [Example A144, (1R*,2S*)-5′,6′-dimethoxy-2-(3-(4-(4-methylpiperazin-1-yl)phenyl)-1H-indazol-6-yl)spiro[cyclopropane-1,3′-indolin]-2′-one 2,2,2-trifluoroacetate], the IC50 at human PLK4 (read-out: PLK4 IC50 Ranges) lay in the range of 100 to 1000 nM.

For the compound `COc1ccc2c(c1)[C@@]1(C[C@@H]1c1ccc3c(I)n[nH]c3c1)C(=O)N2` [Example A8, (1S,2R)-2-(3-iodo-1H-indazol-6-yl)-5′-methoxyspiro[cyclopropane-1,3′-indolin]-2′-one], at human PLK4 (read-out: PLK4 IC50 Ranges), the IC50 was greater than 1000 nM.

With `O=C1Nc2ccccc2[C@]12C[C@H]2c1ccc2c(I)n[nH]c2c1` [Example A10, (1R,2S)-2-(3-iodo-1H-indazol-6-yl)spiro[cyclopropane-1,3′-indolin]-2′-one], on Aurora B, the IC50 fell in the range of 100 to 1000 nM. With `O=C1Nc2ccccc2[C@]12C[C@H]2c1ccc2c(/C=C/c3csc(CN4CCOCC4)n3)n[nH]c2c1` [Example A77, (1R,2S)-2-(3-((E)-2-(2-(morpholinomethyl)thiazol-4-yl)vinyl)-1H-indazol-6-yl)spiro[cyclopropane-1,3′-indolin]-2′-one 2,2,2-trifluoroacetate salt], on human PLK4 (read-out: PLK4 IC50 Ranges), the IC50 was less than 100 nM.

With `COc1ccc2c(c1)[C@]1(C[C@H]1c1ccc3c(/C=C/c4ccc(CN5CCOCC5)cc4)n[nH]c3c1)C(=O)N2C` [Example A102, (1R,2S)-(E)-5′-methoxy-1′-methyl-2-(3-(4-(morpholinomethyl)styryl)-1H-indazol-6-yl)spiro[cyclopropane-1,3′-indolin]-2′-one hydrochloride], the IC50 on Aurora B was less than 100 nM. With `O=C1Nc2ccccc2[C@]12C[C@H]2c1ccc2c(/C=C/c3ccc4c(c3)CNCCO4)n[nH]c2c1` [Example A113, (1R,2S)-2-(3-((E)-2-(2,3,4,5-tetrahydrobenzo[f][1,4]oxazepin-7-yl)vinyl)-1H-indazol-6-yl)spiro[cyclopropane-1,3′-indolin]-2′-one 2,2,2-trifluoroacetate], at human PLK4 (read-out: PLK4 IC50 Ranges), the IC50 is less than 100 nM.

In the case of `C/C(=C\c1ccc(CN2CCOCC2)cc1)c1n[nH]c2cc([C@@H]3C[C@@]34C(=O)Nc3ccccc34)ccc12` [Example A114, (1R,2S)-2-(3-((E)-1-(4-(morpholinomethyl)phenyl)prop-1-en-2-yl)-1H-indazol-6-yl)spiro[cyclopropane-1,3′-indolin]-2′-one 2,2,2-trifluoroacetate], the IC50 on human PLK4 (read-out: PLK4 IC50 Ranges) was less than 100 nM. On to `CN1C(=O)[C@@]2(C[C@H]2c2ccc3c(/C=C/c4ccc(CN5CCCC5)cc4)n[nH]c3c2)c2ccccc21` [Example A115, (1R,2S)-(E)-1′-methyl-2-(3-(4-(pyrrolidin-1-ylmethyl)styryl)-1H-indazol-6-yl)spiro[cyclopropane-1,3′-indolin]-2′-one 2,2,2-trifluoroacetate], for which, at human PLK4 (read-out: PLK4 IC50 Ranges), the IC50 is less than 100 nM. For `COc1ccc2c(c1)[C@]1(C[C@H]1c1ccc3c(-c4ccc(C5(F)CCN(C)CC5)cc4)n[nH]c3c1)C(=O)N2` [Example A124, (1R,2S)-2-(3-(4-(4-fluoro-1-methylpiperidin-4-yl)phenyl)-1H-indazol-6-yl)-5′-methoxyspiro[cyclopropane-1,3′-indolin]-2′-one 2,2,2-trifluoroacetate], the IC50 on human PLK4 (read-out: PLK4 IC50 Ranges) is less than 100 nM. For `COc1ccc2c(c1)[C@]1(C[C@H]1c1ccc3c(-c4csc(CN5CCOCC5)c4)n[nH]c3c1)C(=O)N2` [Example A125, (1R,2S)-5′-methoxy-2-(3-(5-(morpholinomethyl)thiophen-3-yl)-1H-indazol-6-yl)spiro[cyclopropane-1,3′-indolin]-2′-one 2,2,2-trifluoroacetate], on human PLK4 (read-out: PLK4 IC50 Ranges), the IC50 is less than 100 nM. `COc1ccc2c(c1)[C@]1(C[C@H]1c1ccc3c(/C=C/c4ccc(CCN5CCOCC5)cc4)n[nH]c3c1)C(=O)N2` [Example A177, (1R,2S)-(E)-5′-methoxy-2-(3-(4-(2-morpholinoethyl)styryl)-1H-indazol-6-yl)spiro[cyclopropane-1,3′-indolin]-2′-one 2,2,2-trifluoroacetate]: the IC50 at Aurora B was less than 100 nM.
